Measured values taken from US20120071431A1, “Platycodin Radix Extracts, and Their Use in Treating Disease Conditions Associated with Angiogenesis” (priority 2010, published 2012).
Entries after “also recorded” stand apart in the source; their conditions may differ.

Columns and labels:
pancreatic lipase = target: T1, pancreatic lipase (Homo sapiens, UniProt P16233); settings: cited from earlier work
T1 sequence (P16233 17-465): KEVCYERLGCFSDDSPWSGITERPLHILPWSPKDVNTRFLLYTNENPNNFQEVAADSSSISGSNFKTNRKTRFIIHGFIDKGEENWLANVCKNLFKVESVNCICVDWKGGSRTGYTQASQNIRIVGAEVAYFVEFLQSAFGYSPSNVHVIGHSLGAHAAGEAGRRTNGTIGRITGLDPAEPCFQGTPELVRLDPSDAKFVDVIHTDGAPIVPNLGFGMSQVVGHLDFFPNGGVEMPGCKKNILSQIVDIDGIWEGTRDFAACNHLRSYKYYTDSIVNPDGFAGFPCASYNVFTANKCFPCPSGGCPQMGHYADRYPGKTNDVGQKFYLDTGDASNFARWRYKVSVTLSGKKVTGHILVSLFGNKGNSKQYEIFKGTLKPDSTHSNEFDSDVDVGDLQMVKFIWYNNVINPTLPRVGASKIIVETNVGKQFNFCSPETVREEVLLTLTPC

[1] = tested on: angiogenesis in human fat tissue; experiment: human fat tissue angiogenesis assay (substance added to the media); assay type: cell-based
Procedure: The above extracts of platycodin, both PS and PD, were assayed for antiangiogenic activity using the human fat angiogenesis assay of Greenway et al. (2007).
Study 1: An aqueous extract of Platycodi radix saponins at 1% w/v was tested in our human adipose tissue assay. Briefly, subcutaneous adipose tissue was removed from patients undergoing cosmetic surgical procedures. The fat was placed directly into sterile assay media, transported directly to the laboratory from the surgery suite in the sterile container and processed under a laminar flow hood. The tissue was cut into fragments approximately 1 mm thick and 2 mm in diameter. These fragments were placed in 96-well plates containing a 4 μL human thrombin solution (0.05 IU in 4 μL per well) and covered with 100 μL clotting media (3 mg/mL fibrinogen; Sigma Chemical Co., St Louis, Mo., USA), 0.5% ε-amino caproic acid (Sigma Chemical Co.) in angiogenesis media containing 100 U/mL penicillin, 100 U/mL streptomycin sulfate and 2.5 μg/mL amphotericin β in Medium 199 (Gibco BRL, Gaithersburg, Md., USA). The mixture was allowed to clot by incubation in 6% CO2 at 37° C. in a humidified incubator. After the media had gelled overnight, the fat-containing clot was supplemented with 100 μL angiogenesis media containing 20% fetal bovine serum (Gibco BRL). The total volume of each well was 200 μL. There were 30 replicates for the 1% w/v Platycodi radix saponins and the media control. The angiogenesis media were replaced every 48 h and appropriate concentrations of fresh Platycodi radix saponins or media control were added. Wells were evaluated for the angiogenic response as described by Greenway et al. (2007). An observer unbiased to the treatment protocols evaluated the angiogenic response using a semi-quantitative visual rating scale. Briefly, the tissue was viewed under an inverted microscope, visually divided into four quadrants and each quadrant was given a numeric score from 0 to 4 based on the neovessels' length, density, and percentage of the quadrants' circumference involved with the angiogenic response. Numeric results from the four quadrants were summed and expressed as an angiogenic index ranging from 0 (no neovessels apparent in any quadrant) to 16 (highly vascularized in all four quadrants). The extract of Platycodi radix saponins at 1% w/v was tested, followed by Platycodin D, and finally by the Platycodi radix saponins standardized to the Platycodin D content.

**Q.** What does the source list for `C[C@@H]1O[C@@H](O[C@H]2[C@H](OC(=O)[C@]34CCC(C)(C)C[C@H]3C3=CC[C@@H]5[C@@]6(C)C[C@H](O)[C@H](O[C@@H]7O[C@H](CO)[C@@H](O)[C@H](O)[C@H]7O)C(CO)(CO)[C@@H]6CC[C@@]5(C)[C@]3(C)C[C@H]4O)OC[C@H](O)[C@@H]2O)[C@H](O)[C@H](O)[C@H]1O[C@@H]1OC[C@@H](O)[C@H](O[C@@H]2OC[C@](O)(CO)[C@H]2O)[C@H]1O` [PD, platycodin D]?
**A.** inhibition of pancreatic lipase (pancreatic lipase): inhibit pancreatic lipase; inhibition of angiogenesis (angiogenic index) ([1]; 10^-4 M (concentration of platycodin D) and higher): complete inhibition of angiogenesis; inhibition of angiogenesis ([1]; 10^-5 M, difference not statistically significant): partial inhibition; inhibition of angiogenesis ([1]; concentration not given): inhibited angiogenesis; also recorded: inhibitors of angiogenesis; inhibition of angiogenesis ([1]; concentrations above 10^-4 M): totally inhibited angiogenesis; inhibition of angiogenesis ([1]; concentrations below 10^-4 M): did not inhibit angiogenesis
